Laboratory results as given in publication PMC6272662, “Trypanocidal Activity of Long Chain Diamines and Aminoalcohols” (Molecules, 2015).

Assays:
[1] = tested on: Trypanosoma cruzi epimastigotes strain MG (MHOM/CO/04/MG); assay: Epimastigote susceptibility assay, MG strain (Trypan Blue and XTT); type: cell-based; conditions: for MG Strain SI (Selectivity Index: LC50-macrophages/IC50-epimastigotes): MG strain epimastigotes vs J774.2 macrophages; for MG Strain PNFX (potency relative to NFX = IC50-NFX/IC50-compound; also called NI) / IC50: epimastigotes, MG strain; for IC50: 72 h at 28 °C, 0.1-70.0 µM, mean ± SEM
Method: (§1) For in vitro studies, the strains MHOM/CO/04/MG (MG), MHOM/CO/05/JEM (JEM) and CL Brener strain clone B5 (CL-B5) were used. The MG and JEM strains correspond to Group I and Haplotype Ia isolates from two Colombian patients in the acute phase, and CL-B5 is a strain stably transfected with Escherichia coli β-galactosidase gene (lacZ). Epimastigotes were grown in plastic culture flasks at 28 °C, in axenic liver-infusion tryptose (LIT) growth medium, supplemented with 10% heat inactivated (30 min at 56 °C) foetal calf serum (FCS; Sigma), […] hemin (Sigma), and 10 µg/mL gentamycin (Sigma) and harvested in the exponential phase for conducting the experiments. Cultures were continuously maintained in logarithmic growth by weekly passages.
(§2) Three different strains of T. cruzi were used for the primary screening on epimastigote forms. For strains MG and JEM, the screening assay was performed with approximately 1 × 10^5 epimastigotes in logaritmic growth phase in 200 μL of supplemented LIT medium per well in 96-well flat bottoned plates (Costar, Corning, Cornig, NY, USA). […] The plates were incubated for 72 h at 28 °C and all experimental conditions were evaluated in triplicate in three independent experiments. The epimastigote growth inhibition was microscopically determined by the Trypan Blue dye exclusion assay and XTT (2,3-bis-(2-methoxy-4-nitro-5-sulfophenyl)-5-[(phenylamino)carbonyl]-2H-tetrazolium hydroxide). Regarding the first method, an aliquot from every culture was suspended in 0.4% trypan blue solution for 5 min and cell viability was determined under microscope by counting live parasites in each condition in a Neubauer chamber. Anti-epimastigote activity percentage was calculated as (Parasite counts in control wells-Parasite counts in experimental wells) × 100/Parasite counts in control wells. Trypanocidal activity over both strains was also measured adding 50 μL of XTT solution per well to obtain a final concentration of 0.3 mg/mL. The plate was re-incubated 24 h in the dark at 37 °C and orange formazan solution formed, was spectrophotometrically quantified at 450 nm with a 630 nm reference filter, using an Ear400FT ELISA reader.
(§3) Furthermore the Selectivity Index (SI = mammalian cell LC50/epimastigote IC50) for each compound was calculated to compare the antiprotozoal activity with its respective mammalian cell cytotoxicity.

[2] = tested on: Trypanosoma cruzi epimastigotes strain JEM (MHOM/CO/05/JEM); assay: Epimastigote susceptibility assay, JEM strain (Trypan Blue and XTT); type: cell-based; conditions: for JEM Strain SI (Selectivity Index: LC50-macrophages/IC50-epimastigotes): JEM strain epimastigotes vs J774.2 macrophages; for JEM Strain PNFX (potency relative to NFX = IC50-NFX/IC50-compound; also called NI) / IC50: epimastigotes, JEM strain; for IC50: 72 h at 28 °C, 0.1-70.0 µM, mean ± SEM
Method: as §1, §2, §3

[3] = tested on: Trypanosoma cruzi epimastigotes CL Brener strain clone B5 (CL-B5); assay: Epimastigote susceptibility assay, CL-B5 clone (β-galactosidase activity, CPRG); type: cell-based; conditions: for Epimastigotes CL-B5 Clone SI: NCTC-929 cytotoxicity / epimastigote IC50; for Epimastigotes CL-B5 Clone PNFX (nifurtimox IC50/compound IC50) / IC50: epimastigotes, CL-B5 clone; for IC50: 72 h at 28 °C, β-galactosidase readout, mean ± SEM
Method: as §1
Trypanocidal activity against CL-B5 strain was also assessed by measuring β-galactosidase activity. Briefly, log-phase epimastigotes were seeded in 96-well microplates at a density of 2.5 × 10^5 parasites/mL in a final volume of 200 μL/well and incubated within the compounds for 72 h at 28 °C. Afterwards, 50 μL of the β-galactosidase substrate chlorophenol red β-D-galactopyranoside (CPRG, Roche) in 0.9% Triton X-100 (Panreac) solution were added to each well (200 μM, pH 7.4) and the plates incubated at 37 °C for 3 h. Anti-epimastigote activity was estimated by reading absorbance at 595 nm. Each concentration was assayed by triplicate, in three independent experiments. […] In all spectrophotometric assays, anti-epimastigote activity percentages were calculated as (OD control wells − OD experimental wells) ×100/OD control wells.
as §3

[4] = tested on: Trypanosoma cruzi amastigotes CL-B5 clone; assay: Amastigote susceptibility assay, CL-B5 clone in NCTC-929 fibroblasts (CPRG); type: cell-based; conditions: for Amastigotes CL-B5 Clone SI: NCTC-929 cytotoxicity / amastigote IC50; for IC50: intracellular amastigotes in NCTC-929 fibroblasts, 7 days, mean ± SEM
Method: For the anti-amastigote assays, axenic cultures of epimastigotes reaching their stationary phase of growth (14 day-old cultures) were used to infect non-confluent monolayers of NCTC-929 fibroblasts to obtain tissue culture derived trypomastigotes (TCT). After 24 h at 33 °C in a humidified 5% CO2 atmosphere, the infected cultures were washed with phosphate buffer saline (PBS) to removed non-penetrated epimastigotes. TCT were harvested from the supernatant of the cultures after one week of incubation in these conditions of temperature and humidity.
For this assay, 120 μL of BME containing 10,000 NCTC-929 fibroblasts/well were seeded in 48-well plates (Costar) and after their attachment, infected with TCT obtained as above in a 1:6 cell-parasite ratio. The plates were incubated at 33 °C and 5% CO2 overnight and after the infection, experimental wells were washed with PBS to eliminate non-penetrated TCT. […] Then, 50 μL of a CPRG solution in 3% Triton X-100 (pH 7.4) were added to each well in a final concentration of 400 μM and the plates incubated 3 h at 37 °C. Finally, anti-amastigote activity was estimated by reading absorbance at 595 nm in a plate reader (Infinite 200, Tecan) and calculated as in Fonseca-Berzal et al.. IC50 and NI indexes were calculated as above.

J774.2 macrophages = assay: in vitro; conditions: for CC50: read-out: Macrophages LC50, J774.2 macrophages, 72 h, mean ± SEM
Method: (§4) The mouse cell lines J774.2 macrophages and NCTC clone 929 fibroblasts were used and cultured in plastic culture flasks. J774.2 and NCTC-929 cells were grown using DMEM and BME without phenol-red, respectively. Both media were supplemented with 10% heat inactivated fetal calf serum, 2 mM glutamine, 100 U/mL penicillin and 100 μg/mL streptomycin. Cell cultures were maintained at 37 °C in a humidified atmosphere containing 5% CO2 and subpassaged once a week. Cells in the pre-confluence phase were harvested with an EDTA-trypsin solution for the experiments.
(§5) Unspecific cytotoxicity was evaluated over phagocytic macrophages J774.2 cell line. To study cytotoxicity on J774.2 cells, 200 μL of a suspension of 2 × 10^5 macrophages/mL were added to 96 well flat-bottom microplates (Sigma). Cells were allowed to attach for 24 h at 37 °C and then exposed to the compounds for 72 h at the same concentrations as used for drug screening. […] Each concentration was assayed by triplicate, in independent experiments. Cytotoxicity was assessed by the Trypan Blue and XTT techniques and LC50 was calculated as described above.

NCTC-929 fibroblasts = assay: in vitro; type: cell-based; conditions: NCTC-929 fibroblasts, 48 h, resazurin, mean ± SEM; read-out: Cytotoxicity NCTC-929 LC50
Method: (§6) NCTC-929 cells were placed in triplicate in 96-well microtitre plates at 15 × 10^3 cells per well in 100 µL of MEM supplemented with FBS and antibiotics. The cells were grown overnight at 37 °C in 5% CO2. Thereafter, the medium was removed and the compounds were added in 200 µL of medium and plates were incubated 48 h at 37 °C in 5% CO2. After incubation, 20 µL of 2 mM resazurin (Sigma) solution was added to each well. The plates were incubated for 3 h and metabolic activity was measured by fluorimetric readings taken in a plate fluorometer (Infinite 200, TECAN, Mannedorf, Switzerland) at λexcitation 535 nm and λemission 590 nm, according to the Alamar blue® Assay.

in vitro [5] = conditions: mouse
Method: as §4, §5

in vitro [6] = type: cell-based; conditions: mouse
Method: as §6

[7] = Trypanosoma cruzi, NCTC929, 168 h

| Compound | MG Strain SI (Selectivity Index: LC50-macrophages/IC50-epimastigotes) [1] | MG Strain PNFX (potency relative to NFX = IC50-NFX/IC50-compound; also called NI) [1] | IC50 [1] | JEM Strain SI (Selectivity Index: LC50-macrophages/IC50-epimastigotes) [2] | JEM Strain PNFX (potency relative to NFX = IC50-NFX/IC50-compound; also called NI) [2] | IC50 [2] | Epimastigotes CL-B5 Clone SI [3] | Epimastigotes CL-B5 Clone PNFX (nifurtimox IC50/compound IC50) [3] | IC50 [3] | Amastigotes CL-B5 Clone SI [4] | Amastigotes CL-B5 Clone PNFX (nifurtimox IC50/compound IC50) [4] | IC50 [4] | CC50 (J774.2 macrophages) | CC50 (NCTC-929 fibroblasts) | IC50 ([1]; Trypanosoma cruzi, 72 h) | IC50 ([2]; Trypanosoma cruzi, 72 h) | IC50 ([3]; Trypanosoma cruzi) | IC50 [4, 7] | CC50 at 72 h (in vitro [5]) | CC50 at 48 h (in vitro [6]) | other results |
| --- | --- | --- | --- | --- | --- | --- | --- | --- | --- | --- | --- | --- | --- | --- | --- | --- | --- | --- | --- | --- | --- |
| 2-(tert-Butoxycarbonyl)-dodecan-1,2-diamine [Compound 14] | 4.4 | 2.0 | 10.8 µM | 3.3 | 1.0 | 14.5 ± 0.05 µM | 11.8 | 4.2 | 2.5 ± 0.03 µM | 9.9 | 0.2 | 3 ± 0.21 µM | 47.1 ± 0.35 µM | 29.6 ± 0.01 µM |  |  |  |  |  |  |  |
| CCCCCCCCCCCCCCC(N)CO (stereo not drawn) [Compound 2, 2-Aminohexadecanol] | 3.3 | 0.9 |  | 26 | 4.9 |  | 7.2 | 3.0 |  | 14.0 | 0.3 |  |  |  | 23.7 ± 3.15 µM | 3 ± 1.5 µM | 3.5 ± 0.01 µM | 1.8 ± 0.12 µM | 77.8 ± 0.35 µM | 25.2 ± 0.12 µM |  |
| CCCCCCCCCCCCCCC(CO)NCC (stereo not drawn) [Compound 5, 2-(Ethylamino)hexadecanol] | 2.0 | 1.0 |  | 2.3 | 0.8 |  | 9.8 | 3.1 |  | 54 | 1.0 |  |  |  | 21.6 ± 2.95 µM | 19.3 ± 1.35 µM | 3.3 ± 0.1 µM | 0.6 ± 0.25 µM | 43.4 ± 0.5 µM | 32.4 ± 0.02 µM |  |
| 2-tert-Butoxycarbonyl-hexadecan-1,2-diamine [Compound 15] | 4.0 | 1.8 | 12 ± 2.15 µM | 2.4 | 0.7 | 20.4 ± 0.3 µM | 10.6 | 4.3 | 2.4 ± 0.01 µM | 9.8 | 0.2 | 2.6 ± 0.23 µM | 48.1 ± 0.15 µM | 25.6 ± 0.06 µM |  |  |  |  |  |  |  |
| CCCCCCCCCCCCCCC(CO)NCCCC (stereo not drawn) [Compound 6, 2-(Butylamino)hexadecanol] |  | 6.6 |  |  | 5.3 |  | 22.7 | 2.5 |  | 47.8 | 0.3 |  |  |  | 3.2 ± 0.2 µM | 2.8 ± 0.75 µM | 4.2 ± 0.52 µM | 2 ± 0.27 µM | 63.9 ± 3.5 µM | 95.6 ± 1.19 µM | times less toxic than NFX (J774.2 macrophages; macrophages LC50 relative to NFX): 1.3 |
